# Experimental data reported in patent US8883720B2, “Template-fixed beta-hairpin peptidomimetics with CXCR4 antagonizing activity” (Polyphor AG, priority 2008, dated 2014).
# Numbered stars: 1 amine (or outer) side, 2 acyl side, 3 side chain; on linkers, the order of the positions; unused ones are H or OH. Bridge positions count the residues as written; N and C are the ends. Square brackets hold non-standard residues; d marks the D form. Peptide text beside a SMILES is read from it. Abu(3S-NH2) = C[C@H](N)[C@H](N)C(=O)O; Hpla = O=C(O)[C@@H](O)Cc1ccc(O)cc1; X1 = NCC[C@H](O[*:1])C(=O)[*:2]; Lac = C[C@H](O)C(=O)O
# How the values were obtained:
# [1] = Plasma stability, mouse plasma; assay type: in vitro ADME; settings: 37° C., sampled up to 240 min; for half-life at 10 μM: read-out: Plasmastability mouse pl. T1/2
# Method: (§1) The stability of the depsipeptides in human and mouse plasma was determined by applying the following method: 315 μL/deep well of freshly thawed human plasma (Basler Blutspende-dienst) and mouse plasma (Harlan Sera-Lab, UK), respectively, were spiked with 35 μL/well of compound in PBS (100 μM, triplicate) and incubated at 37° C. At t=0, 15, 30, 60, 120 and 240 min aliquots of 50 μL were transferred to filtration plate wells containing 150 μL/well of acetonitrile. Following shaking for 2 min the occurred suspensions were filtrated by vacuum and finally, 100 μL of each filtrate were transferred to a propylene microtiter plate, and analyzed by LC/MS as follows: Column: Waters, XBridge C18, mobile phases: (A) water+0.1% formic acid and (B) acetonitrile/water, 95/5 (v/v)+0.1% formic acid, gradient: 5%-100% (B) in 2 minutes, electrospray ionization, MRM detection (triple quadrupole). The peak areas were determined and triplicate values are averaged. The stability is expressed in percent of the initial value at t=0. (tx/t0×100). By using the TREND function of EXCEL (Microsoft Office 2003) T1/2 were determined.
# [2] = Plasma stability, human plasma; assay type: in vitro ADME; settings: 37° C., sampled up to 240 min; for half-life at 10 μM: read-out: Plasmastability human pl. T1/2
# Method: as §1
# [3] = system: human red blood cells (hRBC); assay type: cell-based; settings: red cells of human, 1 h
# Method: 2.5. Hemolysis The depsipeptides were tested for their hemolytic activity against human red blood cells (hRBC). Fresh hRBC were washed three times with phosphate buffered saline (PBS) and centrifuged for 10 min at 2000×g. Compounds (100 μM) were incubated with 20% hRBC (v/v) for 1 h at 37° C. The final erythrocyte concentration was approximately 0.9×10^9 cells/mL. A value of 0% and 100% cell lyses, respectively, was determined by incubation of hRBC in the presence of PBS alone and 0.1% Triton X-100 in H2O, respectively. The samples were centrifuged, the supernatants were 20-fold diluted in PBS buffer and the optical densities (OD) were measured at 540 nm. The 100% lyses value (OD540H2O) gave an OD540 of approximately 1.3-1.8. Percent hemolysis was calculated as follows: (OD540peptide/OD540H2O)×100%.
# in vitro = assay type: cell-based
# Method: The cytotoxicity of the depsipeptides to HELA cells (Acc57) and COS-7 cells (CRL-1651) was determined using the MTT reduction assay (T. Mossman, J. Immunol. Meth. 1983, 65, 55-63; M. V. Berridge, A. S. Tan, Arch. Biochem. Biophys. 1993, 303, 474-482). Briefly, the method was as follows: 7000 HELA cells/well and 4500 COS-7 cells/well were seeded and grown in 96-well microtiter plates for 24 h at 37° C. at 5% CO2. Thereafter, time zero (Tz) was determined by MTT reduction (see below). The supernatant of the remaining wells was discarded, and fresh medium and compounds in serial dilutions (12.5, 25 and 50 μM, triplicates) were pipetted into the wells. After incubation of the cells for 48 h at 37° C. at 5% CO2 the supernatant was discarded again and 100 μL MTT reagent (0.5 mg/mL in RPMI1640 and DMEM, respectively)/well was added. Following incubation at 37° C. for 2 h the media were aspirated and the cells were spiked (100 μL isopropanol/well). The absorbance of the solubilized formazan was measured at 595 nm (OD595peptide). For each concentration averages were calculated from triplicates. The percentage of growth was calculated as follows: (OD595peptide-OD595Tz-OD595Empty well)/(OD595Tz-OD595Empty well)×100%. The GI50 (Growth Inhibition) concentrations were calculated for each depsipeptide by using a trend line function for the concentrations (50, 25, 12.5 and 0 μM), the corresponding percentages and the value 50, (=TREND (C50:C0, %50:%0, 50).
# human CXCR4 = molecular target: T1, human CXCR4 (Homo sapiens, UniProt P61073); assay: Ca2+-assay: CXCR4-antagonizing activity (SDF-1 induced calcium mobilization); assay type: cell-based; settings: mouse pre-B cell line 300-19 stably transfected with human CXCR4, read-out: IC50% [nM] ± SD, CXCR4 receptor
# T1 construct: expressed in transfected cells; host or cells: mouse pre-B cell line 300-19
# T1 sequence (P61073 whole entry): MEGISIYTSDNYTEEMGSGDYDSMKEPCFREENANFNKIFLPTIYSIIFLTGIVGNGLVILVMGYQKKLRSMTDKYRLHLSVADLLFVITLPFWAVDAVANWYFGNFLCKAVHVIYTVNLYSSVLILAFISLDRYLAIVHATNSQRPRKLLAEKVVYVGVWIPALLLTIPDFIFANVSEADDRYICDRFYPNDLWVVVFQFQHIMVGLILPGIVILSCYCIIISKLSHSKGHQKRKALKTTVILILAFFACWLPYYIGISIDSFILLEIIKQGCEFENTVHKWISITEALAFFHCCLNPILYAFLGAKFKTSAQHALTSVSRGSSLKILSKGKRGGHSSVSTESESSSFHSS
# Description: 2.3. Ca^2+-Assay: CXCR4-Antagonizing Activity of the Depsipeptides
# Increases in intracellular calcium were monitored using a Flexstation 384 (Molecular Devices, Sunnyvale, Calif.) to assay the depsipeptides for CXCR4 antagonism in a mouse pre-B cell line 300-19 stably transfected with human CXCR4 (E. Oberlin, A. Amara, F. Bachelerie, C. Bessia, J.-L. Virelizier, F. Arenzana-Seisdedos, O. Schwartz, J.-M. Heard, I. Clark-Lewis, D. F. Legler, M. Loetscher, M. Baggiolini, B. Moser, Nature 1996, 382, 833-835; M. Loetscher, T. Geiser, T. O'Reilly, R. Zwalen, M. Baggiolini, B. Moser, J. Biol. Chem. 1994, 269, 232-237; M. D'Apuuo, A. Rolink, M. Loetscher, J. A. Hoxie, I. Clark-Lewis, F. Melchors, M. Baggiolini, B. Moser, Eur. J. Immunol. 1997, 27, 1788-1793). The cells were batch loaded with the Calcium 4 Assay kit (Molecular Devices) in assay buffer (Hanks Balanced salt solution [HBSS], 20 mM HEPES, pH 7.4, 0.1% BSA) for 1 h at room temperature and labeled cells were dispensed into black well assays plates (Costar No. 3603). Calcium mobilization induced by stromal-derived factor-1 (SDF-1) was measured in the Flexstation 384 (excitation: 485 nm; emission: 525 nm) for 90 seconds. Antagonist activity of depsipeptides was determined by spiking the cells with compounds prior to SDF-1 addition. Dose response curves (compound concentration versus % maximum response for SDF-1) were determined for each antagonist and IC50 values were calculated by fitting the data to a four parameter logistic equation using SoftmaxPro 4.8 (Molecular Devices).
Structure (SMILES),half-life at 10 μM [1],half-life at 10 μM [2],GI50 at 48 h (in vitro; African green monkey),GI50 at 48 h (in vitro; human),IC50 (human CXCR4),Plasmastability mouse pl. T1/2 [1],Plasmastability human pl. T1/2 [2],Hemolysis at 100 μM [3]
C[C@@H]1NC(=O)[C@H](Cc2c[nH]cn2)NC(=O)[C@H](Cc2ccc(O)cc2)NC(=O)[C@@H]2CCCN2C(=O)[C@H]2CCCN2C(=O)[C@H](CCCCN)NC(=O)[C@H](CCC(N)=O)NC(=O)[C@H](Cc2ccc(O)cc2)NC(=O)[C@@H]2CSSC[C@H](NC1=O)C(=O)N[C@@H](CO)C(=O)O[C@@H](C)C(=O)N1CCC[C@@H]1C(=O)N[C@@H]([C@H](C)N)C(=O)N[C@@H](CCCNC(=N)N)C(=O)N[C@@H](Cc1ccc(O)cc1)C(=O)N2 [Example 1] (cyclo(YHACS[Lac][dP][Abu(3S-NH2)]RYCYQK[dP]P); disulfide 4-11),1.22 h,1.32 h,12000 nM,2000 nM,0.8 ± 0.5 nM,–,–,0.2%
C[C@@H]1NC(=O)[C@H](Cc2c[nH]cn2)NC(=O)[C@H](Cc2ccc(O)cc2)NC(=O)[C@@H]2CCCN2C(=O)[C@H]2CCCN2C(=O)[C@H](CCCCN)NC(=O)[C@H](CCC(N)=O)NC(=O)[C@H](Cc2ccc(O)cc2)NC(=O)[C@@H]2CSSC[C@H](NC1=O)C(=O)N[C@@H](CO)C(=O)N[C@@H](C)C(=O)N1CCC[C@@H]1C(=O)O[C@@H](CCN)C(=O)N[C@@H](CCCNC(=N)N)C(=O)N[C@@H](Cc1ccc(O)cc1)C(=O)N2 [Example 2],–,–,> 50000 nM,> 50000 nM,0.7 ± 0.7 nM,> 4 h,> 4 h,0.7%
C[C@@H]1NC(=O)[C@H](Cc2c[nH]cn2)NC(=O)[C@H](Cc2ccc(O)cc2)NC(=O)[C@@H]2CCCN2C(=O)[C@H]2CCCN2C(=O)[C@H](CCCCN)NC(=O)[C@H](CCC(N)=O)NC(=O)[C@H](Cc2ccc(O)cc2)OC(=O)[C@@H]2CSSC[C@H](NC1=O)C(=O)N[C@@H](CO)C(=O)N[C@@H](C)C(=O)N1CCC[C@@H]1C(=O)N[C@@H]([C@H](C)N)C(=O)N[C@@H](CCCNC(=N)N)C(=O)N[C@@H](Cc1ccc(O)cc1)C(=O)N2 [Example 3] (cyclo(YHACSA[dP][Abu(3S-NH2)]RYC[Hpla]QK[dP]P); disulfide 4-11),2.27 h,1.35 h,> 50000 nM,> 50000 nM,2.7 ± 1.4 nM,–,–,0.4%
C[C@@H]1NC(=O)[C@H](Cc2c[nH]cn2)NC(=O)[C@H](Cc2ccc(O)cc2)NC(=O)[C@@H]2CCCN2C(=O)[C@H]2CCCN2C(=O)[C@H](CCCCN)NC(=O)[C@H](Cc2ccc(O)cc2)OC(=O)[C@H](Cc2ccc(O)cc2)NC(=O)[C@@H]2CSSC[C@H](NC1=O)C(=O)N[C@@H](CO)C(=O)N[C@@H](C)C(=O)N1CCC[C@@H]1C(=O)N[C@@H]([C@H](C)N)C(=O)N[C@@H](CCCNC(=N)N)C(=O)N[C@@H](Cc1ccc(O)cc1)C(=O)N2 [Example 4] (cyclo(YHACSA[dP][Abu(3S-NH2)]RYCY[Hpla]K[dP]P); disulfide 4-11),–,–,> 50000 nM,> 50000 nM,4.4 ± 1.6 nM,> 4 h,> 4 h,1.0%
C[C@@H]1NC(=O)[C@H](Cc2c[nH]cn2)NC(=O)[C@H](Cc2ccc(O)cc2)OC(=O)[C@@H]2CCCN2C(=O)[C@H]2CCCN2C(=O)[C@H](CCCCN)NC(=O)[C@H](CCC(N)=O)NC(=O)[C@H](Cc2ccc(O)cc2)NC(=O)[C@@H]2CSSC[C@H](NC1=O)C(=O)N[C@@H](CO)C(=O)N[C@@H](C)C(=O)N1CCC[C@@H]1C(=O)N[C@@H]([C@H](C)N)C(=O)N[C@@H](CCCNC(=N)N)C(=O)N[C@@H](Cc1ccc(O)cc1)C(=O)N2 [Example 5] (cyclo([Hpla]HACSA[dP][Abu(3S-NH2)]RYCYQK[dP]P); disulfide 4-11),–,–,> 50000 nM,> 50000 nM,3.3 ± 1.1 nM,> 4 h,> 4 h,1.5%

# Continued, in another order:
half-life at 10 μM [1],half-life at 10 μM [2],GI50 at 48 h (in vitro; African green monkey),GI50 at 48 h (in vitro; human),IC50 (human CXCR4),Plasmastability mouse pl. T1/2 [1],Plasmastability human pl. T1/2 [2],Structure (SMILES),Hemolysis at 100 μM [3]
0.0717 h,0.07 h,> 50000 nM,> 50000 nM,13.5 ± 5 nM,–,–,C[C@@H]1NC(=O)[C@H](CCN)OC(=O)[C@H](Cc2ccc(O)cc2)NC(=O)[C@@H]2CCCN2C(=O)[C@H]2CCCN2C(=O)[C@H](CCCCN)NC(=O)[C@H](CCC(N)=O)NC(=O)[C@H](Cc2ccc(O)cc2)NC(=O)[C@@H]2CSSC[C@H](NC1=O)C(=O)N[C@@H](CO)C(=O)N[C@@H](C)C(=O)N1CCC[C@@H]1C(=O)N[C@@H]([C@H](C)N)C(=O)N[C@@H](CCCNC(=N)N)C(=O)N[C@@H](Cc1ccc(O)cc1)C(=O)N2 [Example 6] (cyclo(Y[X1]ACSA[dP][Abu(3S-NH2)]RYCYQK[dP]P); disulfide 4-11),1.0%
0.85 h,1.03 h,> 50000 nM,> 50000 nM,2.1 ± 0.5 nM,–,–,C[C@@H]1NC(=O)[C@H](Cc2c[nH]cn2)NC(=O)[C@H](Cc2ccc(O)cc2)NC(=O)[C@@H]2CCCN2C(=O)[C@H]2CCCN2C(=O)[C@H](CCCCN)NC(=O)[C@H](CCC(N)=O)NC(=O)[C@H](Cc2ccc(O)cc2)NC(=O)[C@@H]2CSSC[C@H](NC1=O)C(=O)N[C@H](CO)C(=O)O[C@@H](C)C(=O)N1CCC[C@@H]1C(=O)N[C@@H]([C@H](C)N)C(=O)N[C@@H](CCCNC(=N)N)C(=O)N[C@@H](Cc1ccc(O)cc1)C(=O)N2 [Example 7] (cyclo(YHAC[dS][Lac][dP][Abu(3S-NH2)]RYCYQK[dP]P); disulfide 4-11),0.2%
–,–,> 50000 nM,> 50000 nM,82.4 ± 12.8 nM,–,–,C[C@@H]1NC(=O)[C@H](Cc2c[nH]cn2)NC(=O)[C@H](Cc2ccc(O)cc2)NC(=O)[C@@H]2CCCN2C(=O)[C@H]2CCCN2C(=O)[C@H](CCN)OC(=O)[C@H](CCC(N)=O)NC(=O)[C@H](Cc2ccc(O)cc2)NC(=O)[C@@H]2CSSC[C@H](NC1=O)C(=O)N[C@@H](CCCNC(=N)N)C(=O)N[C@@H](C)C(=O)N1CCC[C@@H]1C(=O)N[C@@H]([C@H](C)N)C(=O)N[C@@H](CCCNC(=N)N)C(=O)N[C@@H](Cc1ccc(O)cc1)C(=O)N2 [Example 8] (cyclo(YHACRA[dP][Abu(3S-NH2)]RYCYQ[X1][dP]P); disulfide 4-11),0.4%
